These results are taken from ChEMBL document CHEMBL1147995, “In-vitro investigation of oxazol and urea analogues of morphinan at opioid receptors” (Bioorg Med Chem, 2007).

Assay [1] has as its target T1, Mu-type opioid receptor (Homo sapiens, UniProt P35372). Nature of the assay: Displacement of [3H]DAMGO from human mu opioid receptor expressed in CHO membrane. In kind it is cell membranes.
Assay [2] is described as follows: Displacement of [3H]naltrindole from human delta opioid receptor expressed in CHO membrane. A general note: Loss of bound radioactivity is the signal in a displacement assay; it reports binding, not function.
The target in assay [3] is T2, Kappa-type opioid receptor (Homo sapiens, UniProt P41145). Briefly: Displacement of [3H]U69,593 from human kappa opioid receptor expressed in CHO membrane. It is filed as cell membranes.
Assay [4] deals with T3, Delta-type opioid receptor (Homo sapiens, UniProt P41143). Briefly: Displacement of [3H]naltrindole from human delta opioid receptor expressed in CHO membrane at 10 uM. It is filed as cell membranes.
The target of assay [5] is T1, Mu-type opioid receptor. Briefly: Antagonist activity at human mu opioid receptor expressed in CHO cells assessed as inhibition of DAMGO-induced [35S]GTPgammaS binding after 60 mins. In kind it is functional, cell-based. (Binding of GTPγS marks nucleotide exchange on a G protein.)
The target of assay [6] is T2, Kappa-type opioid receptor. Nature of the assay: Agonist activity at human kappa opioid receptor expressed in CHO cells assessed as stimulation of [35S]GTP-gamma-S binding after 60 mins. It is filed as functional, cell-based.
Assay [7] deals with T1, Mu-type opioid receptor. Briefly: Agonist activity at human mu opioid receptor expressed in CHO cells assessed as stimulation of [35S]GTP-gamma-S binding after 60 mins. It is filed as functional, cell-based.
Assay [8] has as its target T1, Mu-type opioid receptor. Nature of the assay: Agonist activity at human mu opioid receptor expressed in CHO cells assessed as stimulation of [35S]GTP-gamma-S binding relative to basal level after 60 mins. In kind it is functional, cell-based.
In assay [9] the target is T2, Kappa-type opioid receptor. Nature of the assay: Agonist activity at human kappa opioid receptor expressed in CHO cells assessed as stimulation of [35S]GTP-gamma-S binding relative to basal level after 60 mins. In kind it is functional, cell-based.
For assay [10], the target named is T3, Delta-type opioid receptor. Briefly: Displacement of [3H]naltrindole from human delta opioid receptor expressed in CHO membrane. In kind it is cell membranes.

T1 sequence (P35372 whole entry): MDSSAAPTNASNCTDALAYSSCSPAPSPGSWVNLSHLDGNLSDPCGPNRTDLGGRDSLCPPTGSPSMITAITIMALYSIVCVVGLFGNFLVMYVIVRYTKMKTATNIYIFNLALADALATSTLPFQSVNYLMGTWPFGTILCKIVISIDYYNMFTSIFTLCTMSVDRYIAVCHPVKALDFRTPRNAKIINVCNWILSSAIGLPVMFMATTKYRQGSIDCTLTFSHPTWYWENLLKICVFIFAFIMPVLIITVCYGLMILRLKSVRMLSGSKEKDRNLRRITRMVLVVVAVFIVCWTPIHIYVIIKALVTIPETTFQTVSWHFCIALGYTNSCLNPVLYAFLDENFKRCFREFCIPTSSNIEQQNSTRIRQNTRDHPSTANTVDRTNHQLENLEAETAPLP
T2 sequence (P41145 whole entry): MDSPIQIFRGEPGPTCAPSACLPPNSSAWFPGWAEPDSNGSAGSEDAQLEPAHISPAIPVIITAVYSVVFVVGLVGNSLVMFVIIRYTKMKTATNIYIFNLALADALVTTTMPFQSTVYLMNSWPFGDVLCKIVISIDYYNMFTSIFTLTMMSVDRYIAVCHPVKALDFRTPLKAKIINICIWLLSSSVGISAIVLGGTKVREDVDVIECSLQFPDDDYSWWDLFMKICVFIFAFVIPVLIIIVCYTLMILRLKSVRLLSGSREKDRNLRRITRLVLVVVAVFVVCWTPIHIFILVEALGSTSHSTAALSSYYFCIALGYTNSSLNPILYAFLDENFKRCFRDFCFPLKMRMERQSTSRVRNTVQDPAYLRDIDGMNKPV
T3 sequence (P41143 whole entry): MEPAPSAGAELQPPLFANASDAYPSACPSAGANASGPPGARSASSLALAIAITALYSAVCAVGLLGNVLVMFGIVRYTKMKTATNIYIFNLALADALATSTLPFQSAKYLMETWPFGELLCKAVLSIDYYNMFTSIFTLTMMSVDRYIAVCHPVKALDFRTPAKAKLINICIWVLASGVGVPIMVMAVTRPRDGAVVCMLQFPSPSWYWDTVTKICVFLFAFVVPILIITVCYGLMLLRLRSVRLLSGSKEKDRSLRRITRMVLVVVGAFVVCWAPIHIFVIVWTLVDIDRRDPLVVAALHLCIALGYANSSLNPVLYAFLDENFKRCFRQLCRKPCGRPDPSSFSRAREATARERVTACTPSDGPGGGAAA

`Nc1ccc2c(c1)[C@@]13CCCC[C@H]1[C@@H](C2)N(CC1CC1)CC3`: the Ki at Mu-type opioid receptor [1] worked out at 0.0013 µM; in [2], 0.15 µM; in assay [3] it was 0.00018 µM.
Turning to `O=c1[nH]c2cc3c(cc2o1)[C@@]12CCCC[C@H]1[C@@H](C3)N(CC1CC1)CC2`, the results for the Ki (on Mu-type opioid receptor [1]; in [3]) were 0.16 µM and 0.047 µM, respectively. In assay [4], this compound returned an inhibition of 44%.
The compound `Nc1ccc2c(c1)[C@@]13CCCC[C@H]1[C@@H](C2)N(CC1CCC1)CC3` came in with an inhibitory constant (Ki) in assay [2] of 0.18 µM.
Consider `Nc1nc2cc3c(cc2o1)[C@@]12CCCC[C@H]1[C@@H](C3)N(CC1CC1)CC2`, for which the Ki on Mu-type opioid receptor [1] stood at 0.15 µM; in assay [3], 0.052 µM. The compound further gave an inhibition in [4] of 18%.
On to `NC(=O)Nc1ccc2c(c1)[C@@]13CCCC[C@H]1[C@@H](C2)N(CC1CC1)CC3`, for which the Ki is 0.0014 µM on Mu-type opioid receptor [1], 0.00061 µM in assay [3] and 0.023 µM in assay [10]. Further, on Mu-type opioid receptor [5], the IC50 came out at 0.38 µM. In addition, the Imax on Mu-type opioid receptor [5] amounted to 52%. Besides, the EC50 in [6] is 0.033 µM; on Mu-type opioid receptor [7], 0.031 µM. The maximal effect (Emax) on Mu-type opioid receptor [8] was 21%; in [9], 84%.
Consider `Nc1nc2cc3c(cc2o1)[C@@]12CCCC[C@H]1[C@@H](C3)N(CC1CCC1)CC2`, for which the results for the Ki (on Mu-type opioid receptor [1]; in assay [3]) were 0.04 µM and 0.0066 µM, respectively. The inhibition in assay [4] was determined as 46%.
With `NC(=O)Nc1ccc2c(c1)[C@@]13CCCC[C@H]1[C@@H](C2)N(CC1CCC1)CC3`, the Ki at Mu-type opioid receptor [1] turned out to be 0.0032 µM; in [3], 0.0089 µM; in [10] it was 0.16 µM. Further, the IC50 at Mu-type opioid receptor [5] came to 1.5 µM. In addition, the Imax on Mu-type opioid receptor [5] came out at 35%. In addition, the results for the EC50 (in assay [6]; at Mu-type opioid receptor [7]) were 0.087 µM and 0.063 µM, respectively. Besides, the Emax amounted to 33% on Mu-type opioid receptor [8] and 64% in [9].
On to `O=c1[nH]c2cc3c(cc2o1)[C@@]12CCCC[C@H]1[C@@H](C3)N(CC1CCC1)CC2`, for which the Ki at Mu-type opioid receptor [1] was determined as 0.0058 µM; in assay [3] it was 0.0019 µM; in assay [10] it was 0.36 µM.
For `CNC(=O)Nc1ccc2c(c1)[C@@]13CCCC[C@H]1[C@@H](C2)N(CC1CCC1)CC3` the same measures were 0.022 µM, 0.02 µM and 0.27 µM.
Regarding `CNC(=O)Nc1ccc2c(c1)[C@@]13CCCC[C@H]1[C@@H](C2)N(CC1CC1)CC3`, the inhibition constant Ki amounted to 0.012 µM on Mu-type opioid receptor [1], 0.0023 µM in assay [3] and 0.05 µM in [10]. In addition, the EC50 in assay [6] was determined as 0.0084 µM. Also, the Emax in assay [9] was 67%.

Usually Ki stands for a measure of affinity in units of concentration, obtained from inhibition or displacement. Higher therefore signals lower affinity. Usually inhibition stands for the change of the read-out against control, counted positive when it falls. A low value points to a response near the control. In general, IC50 refers to the point on the concentration scale where inhibition reaches its midpoint. As usually defined, the EC50 is the concentration at which the effect is half-maximal. By Emax is commonly meant the size of the effect at its maximum, as opposed to the concentration needed.
